The target in the assay is T1, human clotting factor VIIa (Homo sapiens, UniProt P08709).
T1 construct: a human clotting factor VIIa (hereinafter, “Factor VIIa”) purified sample; purchased Enzyme Research Laboratories HFVIIa
Briefly: Inhibitory activity against clotting factor VIIa (chromogenic substrate Spectrozyme FVIIa, TF/Factor VIIa enzyme solution). The format is biochemical. As to conditions: human Factor VIIa 5 nmol/L with human TF 10 nmol/L, room temperature 40 minutes, 405 nm. An outline of the steps:
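Human Factor VIIa (5 nmol/L) with human TF (10 nmol/L) in Tris-BSA buffer pH 7.4 containing 15 mmol/L CaCl2 and cephalin, with Spectrozyme FVIIa substrate. Reaction 40 min at room temperature; 4-nitroanilide read at 405 nm. IC50 by non-linear regression over 100 μmol/L–0.1 nmol/L.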

This is an account of results in patent US7816522B2, “Triazolone derivatives” (Eisai Co., Ltd., priority 2006, dated 2010).

The IC50 is the concentration at which inhibition is half-maximal. Read a high IC50 as weaker potency.

T1 sequence (P08709 213-466 limits assumed): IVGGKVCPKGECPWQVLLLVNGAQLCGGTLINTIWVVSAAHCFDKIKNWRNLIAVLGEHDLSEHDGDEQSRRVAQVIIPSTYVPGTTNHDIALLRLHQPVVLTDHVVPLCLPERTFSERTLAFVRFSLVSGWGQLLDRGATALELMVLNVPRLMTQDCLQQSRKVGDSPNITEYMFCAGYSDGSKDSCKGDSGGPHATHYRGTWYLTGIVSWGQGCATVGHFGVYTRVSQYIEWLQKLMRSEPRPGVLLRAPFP
T1 sequence (P08709 61-212 limits assumed): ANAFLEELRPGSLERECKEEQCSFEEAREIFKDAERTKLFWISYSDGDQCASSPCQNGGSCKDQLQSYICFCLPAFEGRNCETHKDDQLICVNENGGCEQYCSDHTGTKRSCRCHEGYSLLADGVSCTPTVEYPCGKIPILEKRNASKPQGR
T1 sequence (P13726 33-295 partner): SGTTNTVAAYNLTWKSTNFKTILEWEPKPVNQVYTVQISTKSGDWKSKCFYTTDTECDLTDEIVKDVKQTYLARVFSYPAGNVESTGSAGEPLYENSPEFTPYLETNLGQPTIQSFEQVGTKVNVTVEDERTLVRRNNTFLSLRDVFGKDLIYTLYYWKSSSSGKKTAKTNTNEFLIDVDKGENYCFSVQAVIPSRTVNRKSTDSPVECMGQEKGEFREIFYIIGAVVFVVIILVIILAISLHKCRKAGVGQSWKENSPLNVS

In the case of `COc1cc(F)c(C(Nc2ccc(C(=N)N)cc2)c2nn(-c3ncccc3F)c(=O)[nH]2)cc1OC` (racemic) [Example 184, (R) and (S)-4-({(2-fluoro-4,5-dimethoxyphenyl)-[1-(3-fluoropyridin-2-yl)-5-oxo-4,5-dihydro-1H-[1,2,4]triazol-3-yl]methyl}amino)benzamidine acetate], the IC50 worked out at 6.7 nM.
For the compound `COc1cc(C(Nc2ccc(C(=N)N)cc2)c2nn(-c3ncccc3N)c(=O)[nH]2)cnc1OC` (racemic) [Example 186, 4-{[(R) and (S)-[1-(3-Aminopyridin-2-yl)-5-oxo-4,5-dihydro-1H-[1,2,4]triazol-3-yl]-(5,6-dimethoxypyridin-3-yl)methyl]amino}benzamidine acetate], the IC50 came out at 4.6 nM.
In the case of `COc1cc(C(Nc2ccc(C(=N)N)cc2)c2nn(-c3ncsc3C(=O)O)c(=O)[nH]2)c(F)c2c1OCCC2` (racemic) [Example 190, 4-{3-[(R) and (S)-(4-Carbamimidoylphenylamino)-(5-fluoro-8-methoxychroman-6-yl)methyl]-5-oxo-4,5-dihydro-[1,2,4]triazol-1-yl}thiazole-5-carboxylic acid] it was 7.9 nM.
As for `COc1ccc(C(Nc2ccc(C(=N)N)cc2)c2nn(-c3ncsc3C(=O)O)c(=O)[nH]2)cc1OC` (racemic) [Example 193, (R) and (S)-4-{3-[(4-Carbamimidoylphenylamino)-(3,4-dimethoxyphenyl)methyl]-5-oxo-4,5-dihydro-[1,2,4]triazol-1-yl}-thiazole-5-carboxylic acid], the figure is 15.7 nM.
For `COc1cc(F)c(C(Nc2ccc(C(=N)N)cc2)c2nn(-c3[nH]ncc3C(=O)O)c(=O)[nH]2)cc1OC` (racemic) [Example 194, (R) and (S)-5-{3-[(4-Carbamimidoylphenylamino)-(2-fluoro-4,5-dimethoxyphenyl)methyl]-5-oxo-4,5-dihydro-[1,2,4]triazol-1-yl}-1H-pyrazole-4-carboxylic acid acetate], the IC50 is 74.5 nM.
In the case of `COCCOc1ccc(C(Nc2ccc(C(=N)N)cc2)c2nn(-c3ccsc3C(=O)O)c(=O)[nH]2)cc1OC` (racemic) [Example 195, 3-(3-{(R) and (S)-(4-Carbamimidoylphenylamino)-[3-methoxy-4-(2-methoxyethoxy)phenyl]methyl}-5-oxo-4,5-dihydro-[1,2,4]triazol-1-yl)thiophene-2-carboxylic acid] it was 6.2 nM.
`COc1cc(OCCO)c(F)c(C(Nc2ccc(C(=N)N)cc2)c2nn(-c3ncc[nH]c3=O)c(=O)[nH]2)c1` (racemic) [Example 199, (R) and (S)-4-({[2-Fluoro-3-(2-hydroxyethoxy)-5-methoxyphenyl]-[5-oxo-1-(3-oxo-3,4-dihydropyrazin-2-yl)-4,5-dihydro-1H-[1,2,4]triazol-3-yl]methyl}amino)benzamidine acetate] came in with an IC50 of 24.1 nM.
For `COc1cc(OCCO)c(F)c(C(Nc2ccc(C(=N)N)cc2)c2nn(-c3ncccc3N)c(=O)[nH]2)c1` (racemic) [Example 201, 4-({(R) and (S)-[1-(3-Aminopyridin-2-yl)-5-oxo-4,5-dihydro-1H-[1,2,4]triazol-3-yl]-[2-fluoro-3-(2-hydroxyethoxy)-5-methoxyphenyl]methyl}amino)benzamidine acetate], inhibition was half-maximal at 7.8 nM (IC50).
In turn, `COCCOc1cc(OC)cc(C(Nc2ccc(C(=N)N)cc2)c2nn(-c3ncccc3N)c(=O)[nH]2)c1F` (racemic) [Example 203, 4-({(R) and (S)-[1-(3-Aminopyridin-2-yl)-5-oxo-4,5-dihydro-1H-[1,2,4]triazol-3-yl]-[2-fluoro-5-methoxy-3-(2-methoxyethoxy)phenyl]methyl}amino)benzamidine acetate] showed an IC50 of 8.5 nM.
`CCc1cc(OCCCO)c(F)c(C(Nc2ccc(C(=N)N)cc2)c2nn(-c3ncccc3N)c(=O)[nH]2)c1` (racemic) [Example 205, (R) and (S)-4-({[1-(3-Aminopyridin-2-yl)-5-oxo-4,5-dihydro-1H-[1,2,4]triazol-3-yl]-[5-ethyl-2-fluoro-3-(3-hydroxypropoxy)phenyl]methyl}amino)benzamidine acetate]: half-maximal inhibition (IC50) was put at 2.3 nM.
Take `COc1cc(C(Nc2ccc(C(=N)N)cc2)c2nn(-c3ccsc3C(=O)O)c(=O)[nH]2)ccc1OCCCO` (racemic) [Example 206, 3-(3-{(R) and (S)-(4-Carbamimidoylphenylamino)-[4-(3-hydroxypropoxy)-3-methoxyphenyl]methyl}-5-oxo-4,5-dihydro-[1,2,4]triazol-1-yl)thiophene-2-carboxylic acid]: the IC50 worked out at 5.6 nM.
For the compound `COc1cc(C(Nc2ccc(C(=N)N)cc2)c2nn(-c3ncccn3)c(=O)[nH]2)c(F)cc1OCCO` (racemic) [Example 208, 4-{[(R) and (S)-[2-Fluoro-4-(2-hydroxyethoxy)-5-methoxyphenyl]-(5-oxo-1-pyrimidin-2-yl-4,5-dihydro-1H-[1,2,4]triazol-3-yl)methyl]amino}benzamidine acetate], the IC50 worked out at 85.6 nM.
`COc1cc(C(Nc2ccc(C(=N)N)cc2)c2nn(-c3ccccc3C(N)=O)c(=O)[nH]2)cc2c1OCOC2` (racemic) [Example 211, 2-{3-[(4-Carbamimidoylphenylamino)-(8-methoxy-4H-benzo[1,3]dioxin-6-yl)methyl]-5-oxo-4,5-dihydro[1,2,4]triazol-1-yl}benzamide] displayed an IC50 of 4.7 nM.
On to `C#Cc1cc(OCCO)cc(C(Nc2ccc(C(=N)N)cc2)c2nn(-c3ncccn3)c(=O)[nH]2)c1` (racemic) [Example 212, 4-{[[3-Ethynyl-5-(2-hydroxyethoxy)phenyl]-(5-oxo-1-pyrimidin-2-yl-4,5-dihydro-1H-[1,2,4]triazol-3-yl)methyl]amino}benzamidine], for which the midpoint of inhibition, the IC50, lay at 5.7 nM.
`COc1cc(C(Nc2ccc(C(=N)N)cc2)c2nn(-c3ccccn3)c(=O)[nH]2)cc2c1OCOC2` (racemic) [Example 213, (R) and (S)-4-{[(8-Methoxy-4H-benzo[1,3]dioxin-6-yl)-(5-oxo-1-pyridin-2-yl-4,5-dihydro-1H-[1,2,4]triazol-3-yl)methyl]amino}benzamidine acetate] showed an IC50 of 3.3 nM.
In the case of `COc1cc(C(Nc2ccc(C(=N)N)cc2)c2nn(-c3ccccc3C(N)=O)c(=O)[nH]2)cc2c1OCCCO2` (racemic) [Example 214, (R) and (S)-2-{3-[(4-Carbamimidoylphenylamino)-(9-methoxy-3,4-dihydro-2H-benzo[b][1,4]dioxepin-7-yl)methyl]-5-oxo-4,5-dihydro[1,2,4]triazol-1-yl}benzoic acid amide acetate] it was 3.5 nM; in that of `COc1cc(C(Nc2ccc(C(=N)N)cc2)c2nn(-c3ccsc3C(=O)O)c(=O)[nH]2)c(F)c2c1OCC2` (racemic) [Example 215, (R) and (S)-3-{3-[(4-Carbamimidoylphenylamino)-(4-fluoro-7-methoxy-2,3-dihydrobenzofuran-5-yl)methyl]-5-oxo-4,5-dihydro[1,2,4]triazol-1-yl}thiophene-2-carboxylic acid], 3.4 nM.
On to `COc1cc(O[C@@H](C)CO)c(F)c(C(Nc2ccc(C(=N)N)cc2)c2nn(-c3ncccn3)c(=O)[nH]2)c1` (mixture of isomers) [Example 217, (R) and (S)-4-{[[2-Fluoro-3-((S)-2-hydroxy-1-methylethoxy)-5-methoxyphenyl]-(5-oxo-1-pyrimidin-2-yl-4,5-dihydro-1H-[1,2,4]triazol-3-yl)methyl]amino}benzamidine acetate], for which the IC50 came to 3.1 nM.
